According to publication PMC11004067, “Identification and characterization of a calcium-binding peptide from salmon bone for the targeted inhibition of α-amylase in digestion” (Food Chemistry: X, 2024):

What was measured:
α-amylase [1] = experiment: Kinetics of α-amylase inhibition (Lineweaver-Burk); type: biochemical; details: 37 °C
Protocol: The kinetics of α-amylase inhibition was performed with minor modifications as previously reported ([Cardullo et al., 2020]). In the reaction system, 1 mL of soluble starch solution (10 mg/mL) and 1 mL of different concentrations of SBPH, SBTH, and SBNPH (concentrations of 1, 10, 100, and 1000 μg/mL, respectively) were added. a temperature bath was maintained at 37 °C for 30 min. Different concentrations of α-amylase solution were added. The change in absorbance value of the system was determined. Plot the rate of enzymatic reaction versus α-amylase concentration.
To the reaction system, 1 mL of soluble starch solution of different concentrations (0, 5, 10, 15, 20, 25 mg/mL) was added. The effects of different concentrations of SBPH, SBTH and SBNPH on α-amylase activity were determined at 37 °C in a water bath. Finally, the inverse of the concentration of soluble starch solution was used as the horizontal coordinate and plotted with Lineweaver-Burk plots to determine the type of inhibition of α-amylase by SBPH, SBTH and SBNP. The general equation for reversible inhibition is given below: v=vmaxS/Km1+i/Kic+1+i/Kiu 1/v=Km+s/vmaxs+iKm/Kic+s/Kiu/vmaxs 1/v=Km/vmax1+i/Kic+s/vmax1+i/Kiu where Km is the Michaelis-menten constand (mg/mL), v denotes the initial reaction rate (U, mm/min), S denotes the substrate concentration (mg/mL), i denotes the content of the inhibitor concentration (U, mg/mL), Kic denotes the inhibitory constant of the competitive inhibitor, and Kiu denotes the inhibitory constant of the non-competitive inhibitor.

α-amylase [2] = experiment: α-amylase inhibition during in vitro simulated gastrointestinal digestion; type: biochemical; details: 0-240 min, DNS method
Protocol: The activity of α-amylase was determined spectrophotometrically using soluble starch as the substrate and 3,5-dinitrosalicylic acid (DNS) as the chromogenic agent. α-amylase solution (4 units/mL, 0.25 mL) and 0.25 mL each of SBPH, SBTH, and SBNPH (each at 1 μg/mL, 10 μg/mL, 100 μg/mL, and 1000 μg/mL concentrations) were added to 0.5 mL of PBS (pH 6.9, 0.2 mol/L) to make test solutions. These solutions were then incubated at 37 °C for 10 min. Then, 0.5 mL of 1% soluble starch solution was added to each test solution to continue the reaction for 5 min. Thereafter, l mL of DNS reagent was added to each solution, and the mixtures were boiled for 10 min. After the dilution of five times, the absorbance value was measured at 540 nm ([Wu et al., 2019]). […] A represents the absorbance value of the blank tube, a represents the absorbance value of the blank control tube, B represents the absorbance value of the inhibition tube, and b represents the absorbance value of the background control tube.
A gastrointestinal digestion simulation test was performed according to a previously reported method ([Brodkorb et al., 2019]). Samples were assessed at 0, 10, 30, 60, 90, 120, 130, 150, 180, 210, and 240 min. The inhibition rates of SBPH, SBTH, and SBNPH for α-amylase were determined by the DNS method.

3 T3-L1 preadipocytes [3] = experiment: Total cellular cholesterol content; type: cell-based; details: 1000 μg/mL
Protocol: (§1) With minor modifications based on the method ([Lee et al., 2023]). 3 T3-L1 Preadipocytes were cultured at 37 °C and 5% CO2 until 80% fusion, passaged and differentiated. After induction with inducers for 8d, the cells were then cultured with DMEM containing 1% PS and 10% FBS for 4d.
Total cellular cholesterol content was measured using a kit (JianCheng, Nanjing, China). The […] enzymatic method was used according to the manufacturer's instructions. Protein concentration was measured using the BCA protein assay kit (Solarbio, Beijing, China).

[4] = Effect of PIE on body weight in mice; type: in vivo; details: 30 mg/kg by gavage, 12 weeks, female BALB/c mice
Protocol: The animal study was approved by the Animal Ethics Committee of Dalian Polytechnic University (protocol ID SYXK2017–0005) per the guidelines of the National Institutes of Health Laboratory Animals for Animal Care. 10-week-old female BALB/c mice (L20160258, Dalian Medical University, Liaoning, China) were acclimatized with normal chow for 2 d, and were randomly separated 2 groups (n = 8): the control group (saline) and the PIE group (at a dose of 30 mg PIE/kg body weight). Both groups were maintained on a basal diet throughout the study. Given that mice are nocturnal feeders, gavage was performed between 5:00–6:00 PM. Body weights were measured and recorded at 7-day intervals. The feed and water were provided ad libitum to mice. Changes in body weight were analyzed after 12 weeks of continuous gavage ([Pinzón-García et al., 2018]).

[5] = ref Xu et al., 2020, 2019, 2022; cited from earlier work
From the text: Peptidomics facilitates the comprehensive characterization of peptides on a large scale. This analytical approach offers a time-efficient means of generating an extensive array of peptide fragments ([Martini, Solieri, & Tagliazucchi, 2021]). Herein, the peptide sequences were retrieved from an established database using MASCOT, and active peptide sequences with Ca-binding capacities were identified. The peptide sequences from SBTH were identified in Table S1 (Supplementary materials), along with information on their amino acid sequences, lengths, and molecular weights. A total of 6505 peptide ...

α-amylase [6] = experiment: α-amylase inhibition rate (DNS method, soluble starch); type: biochemical; details: 100 μg/mL; α-amylase 4 units/mL, PBS pH 6.9, 37 °C 10 min, 1% soluble starch 5 min, DNS 540 nm; mean, n = 3
Protocol: The activity of α-amylase was determined spectrophotometrically using soluble starch as the substrate and 3,5-dinitrosalicylic acid (DNS) as the chromogenic agent. α-amylase solution (4 units/mL, 0.25 mL) and 0.25 mL each of SBPH, SBTH, and SBNPH (each at 1 μg/mL, 10 μg/mL, 100 μg/mL, and 1000 μg/mL concentrations) were added to 0.5 mL of PBS (pH 6.9, 0.2 mol/L) to make test solutions. These solutions were then incubated at 37 °C for 10 min. Then, 0.5 mL of 1% soluble starch solution was added to each test solution to continue the reaction for 5 min. Thereafter, l mL of DNS reagent was added to each solution, and the mixtures were boiled for 10 min. After the dilution of five times, the absorbance value was measured at 540 nm ([Wu et al., 2019]). The inhibition of the activity of α-amylase by salmon bone hydrolysate was calculated as using the formula (1):(1) I%=[1−B−b/A−a×100% where I represents the inhibition rate of α-amylase by salmon bone hydrolysates. A represents the absorbance value of the blank tube, a represents the absorbance value of the blank control tube, B represents the absorbance value of the inhibition tube, and b represents the absorbance value of the background control tube.

3 T3-L1 preadipocytes [7] = experiment: Cellular triglyceride content; type: cell-based; details: 1000 μg/mL, with Inducers I and II
Protocol: as §1
Cellular triglyceride content (TG) was measured using a kit (JianCheng, Nanjing, China). Differentiated adipocytes were treated with different samples in 6-well plates according to the manufacturer's instructions. Cells were first washed with PBS, followed by the addition of ethanol. The cells were then transferred into centrifuge tubes using a cell scraper. Subsequently, the cells were broken down by ultrasound in an ice water bath. […] was measured using a specialized kit.

α-amylase [8] = experiment: DLS analysis of α-amylase particle size / hydrodynamic radius; type: biochemical; details: α-amylase 4 units/mL, substance 1-1000 μg/mL, 24 h incubation
Protocol: The α-amylase solution (4 units/mL) and SBPH, SBTH, and SBNPH solutions (each at 1, 10, 100, and 1000 μg/mL concentrations) were prepared. Filtration was performed using a 0.45-μm filter. The α-amylase solution was incubated with different concentrations of SBPH, SBTH, and SBNPH solutions for 24 h. Each sample (1 mL) was analyzed using the DLS apparatus. The particle size variation of α-amylase in each solution was analyzed. The α-amylase alone solution was used as a positive control under the same conditions ([Xiong et al., 2016]).

[9] = ref Xu et al., 2020, 2019, 2022; cited from earlier work; remark: listed apart in the source
[10] = Ca-binding capacity (colorimetric Ca kit); details: 5 mg sample, 1 mL 5 mM CaCl2, 2 mL PBS 20 mM pH 7, 37 °C 1 h; ranking in words, Fig. 1C
Protocol: The Ca-binding capacities of SBPH, SBTH, and SBNPH were determined according to the previous study ([Choi, Jung, Choi, Kim, & Ha, 2005]). 5 mg lyophilized powder of SBPH, SBTH, and SBNPH, was mixed with 1 mL of 5 mM CaCl2 and 2 mL of phosphate-buffered saline (PBS, 20 mM, pH = 7). The mixture was stirred at 37 °C pH = 7 for 1 h, followed by centrifugation at 5000 rpm for 10 min. The calcium content in the supernatant was determined using colorimetry with Ca assay kits (JianCheng, Nanjing, China).

α-amylase [11] = experiment: α-amylase conformation: secondary structure content by circular dichroism; type: biochemical; details: 1-1000 μg/mL
Protocol: The effect of peptides on the secondary structure of α-amylase was analyzed by circular dichroism. α-Amylase was reacted with the following different concentrations of SBPH, SBTH, and SBNPH: 1, 10, 100, and 1000 μg/mL. The test parameters were as follows: 1 mm quartz cuvette; scanning wavelength range = 190– 250 nm; bandwidth = 2 nm; scanning speed = 100 nm/min; and response time = 1 s. α-Amylase without SBPH, SBTH, and SBNPH treatment was used as the blank control, and it was analyzed under the same conditions. The experimental results were obtained by subtracting the buffer background from the scanned data ([Zhang & Ma, 2013]).

3 T3-L1 preadipocytes [12] = experiment: Cell viability (MTT) in 3 T3-L1 preadipocytes; type: cell-based; details: 24 h, 1 to 100 μg/mL
Protocol: With slight modifications based on the method ([Cui et al., 2019]). MTT method was used to assess the proliferative effects of different concentrations of orlistat, SBTH and PIE on 3 T3-L1 preadipocytes. Cells were treated with different samples for 24 h. Finally, the absorbance at 490 nm was measured using a Microplate Reader (Synergy H1, BioTek, USA).

[13] = Lineweaver-Burk double inverse plots, soluble starch 0-25 mg/mL

Molecule | KI (α-amylase [1]; [13]) | KIS (α-amylase [1]; [13]) | reversibility of α-amylase inhibition (α-amylase [1]; enzyme reaction rate against α-amylase concentration) | α-amylase inhibition rate with simulated digestion time (α-amylase [2]) | TC content decreased to (3 T3-L1 preadipocytes [3]) | body weight change ([4]; n = 8) | weight gain over three months ([4]; n = 8, basal diet, control group 33.65%) | calcium-binding capability [5] | α-amylase inhibition rate (α-amylase [6]) | TG content reduced to (3 T3-L1 preadipocytes [7]) | hydrodynamic radius of α-amylase (α-amylase [8]) | activity and stability in the gastrointestinal tract [9] | calcium-binding capacity / affinity [10] | change of α-amylase secondary structure with increasing concentration (α-amylase [11]) | cytotoxicity (3 T3-L1 preadipocytes [12])
IEELEEELEAER [PIE, Ile-Glu-Glu-Leu-Glu-Glu-Glu-Glu-Leu-Glu-Ala-Glu-Arg, peptide … from SBTH, purity 94.74%, synthesized at ChinaPeptides] | 3.29 mg/mL | 3.97 mg/mL | reversible | the inhibition rate decreased significantly with the increasing duration of gastrointestinal digestion | 54.35% | no significant weight change | 6.61% | pronounced calcium-binding capability | 58.81% | 52.11% | increased gradually | robust activity and stability within the gastrointestinal tract | greatest affinity for calcium | a decrease in α-helix content and an increase in β-fold structures | 
CCCCCCCCCCC[C@@H](C[C@@H]1OC(=O)[C@H]1CCCCCC)OC(=O)[C@H](CC(C)C)NC=O [orlistat] |  |  |  |  |  |  |  |  |  |  |  |  |  |  | no cytotoxicity
